The nature of data set [1]: Solubility in pH 1.0, 4.5, 6.8 buffer solutions and pure water (supersaturated solution, 37° C., HPLC). Type of data set: physicochemical. The note with it: for solubility: ultrapure water, thermodynamic from solid, 37° C. water bath overnight, read-out: apparent solubility in pure water. The procedure: 1. The experiment process A pH 1.0 HCl solution, a pH 4.5 acetate buffer solution, a pH 6.8 phosphate buffer solution and 5 mL of ultrapure water are added into graduated test tubes having stoppers. Small amounts of the test samples (butyphthalide (NBP), DB-1 hydrochloride or DB-2 hydrochloride) are weighed and added in batches. After each batch of the adding, intense shaking is performed for 30 seconds (ultrasound is prohibited), the dissolving is observed at any time, and when the test samples are add so that turbid insoluble particles or liquid drops can be seen, finally proper amounts of the test samples are added. The system is placed into a 37° C. water bath and vibrated overnight, to form a supersaturated solution. The supersaturated solution is centrifuged or filtered (the adsorption should be noticed), and 100 μL is fed into HPLC to measure the concentrations of the tested medicines.

Data set [2] can be described thus: In-vivo tissue distribution in mice (heart, liver, spleen, lung, kidney, brain). The arrangement: species or system Kunming mice. To be noted: for contents in the brain compared with the sodium salt of 2-(α-hydroxypentyl)benzoic acid (NBP): all detection time points. The procedure:
(§1) 1. Animal Grouping and Dosage Regimen
(§2) 90 Kunming mice (male; 20±2 g) are randomly grouped into three groups, with 30 mice in each of the groups. The first group is the butyphthalide group, is divided into 6 subgroups (5 mice in each of the subgroups), and is administered with butyphthalide by 10 mg/kg. The secondary group is the DB-1 group, is divided into 6 subgroups (5 mice in each of the subgroups), and is administered with DB-1 of the equal moles to the butyphthalide. The third group is the DB-2 group, is divided into 6 subgroups (5 mice in each of the subgroups), and is administered with DB-2 of the equal moles to the butyphthalide. Before the experiment the mice are fasted and are free to drink water. At 5 min, 15 min, 30 min, 1 h, 2 h and 4 h, all of the groups are taken blood at the orbit and then executed, and the hearts, livers, spleens, lungs, kidneys and brains of the mice are immediately separated, washed by using normal saline, dried by using filter paper, weighed, added normal saline of a certain multiple, homogenized, placed into a −40° C. refrigerator, and refrigerated for use. The whole blood is centrifuged at 4500 r/min for 5 min, and the plasma is sucked and placed into a −40° C. refrigerator for use. The stored tissue homogenates are thawed, and 0.1 mL of each of the tissue homogenates is placed into a 0.5 mL EP tube, and added 0.2 mL of acetonitrile protein for precipitation. The precipitate is treated by vortex shocking for 5 minutes, and centrifuged at 10000 rpm for 10 min, and […] of the supernatant is fed into an LC-MS/MS system, for measuring the concentrations of the tested medicines.

Data set [3] in a line: Pharmacokinetics in mice: blood concentration versus time (LC-MS/MS). The format is in vivo, Kunming mice. The note with it: 10 mg/kg butyphthalide or equal moles; for concentration at 5 min / concentration at 1 h: male, Kunming, mouse, plasma. How it is done:
as §1, §2

Data set [4] is described as follows: Hygroscopicity: moisture absorption/weight gaining percentage at 25° C., relative humidity 75%. The format is physicochemical. The procedure: 1. The Experiment Process
Three samples of each of the sodium salt of 2-(α-hydroxypentyl)benzoic acid, DB-1 and DB-2 are precisely weighed with approximately 0.2 g for each sample, and placed into weighing bottles, and the total masses of each of the samples and its weighing bottle are weighed and recorded. Then the weighing bottles are placed in a closed environment at 25° C. and at a constant humidity with the relative humidity of 75%, their masses are weighed at 6 h, 12 h, 24 h, 48 h, 96 h and 120 h, and the moisture absorption/weight gaining percentages are calculated. The moisture absorption/weight gaining percentages are calculated by using the formula as follows: moisture absorption/weight gaining percentage (%)=(sample mass after dilution—sample mass before dilution)/sample mass before dilution*100%.

A short description of data set [5]: Assessment on the brain targeting ability (Re, Ce, DTI relative to NBP, DAS3.2.5). The note with it: mice. The format is in vivo, Kunming mice. How it is done: as §2
The pharmacokinetic parameters are calculated by using the DAS3.2.5 software. Regarding the quantitative assessment on the brain targeting ability of the sodium salt of 2-(α-hydroxypentyl)benzoic acid (NBP), DB-1 hydrochloride and DB-2 hydrochloride, the following parameters are employed: relative uptake ratio (Rebrain), peak concentration ratio (Cebrain) and drug targeting index (DTIbrain), the calculating formulas of which are respectively: Re(brain, DB-1)=(AUCbrain)DB-1/(AUCbrain)NBP CeDB-1=(Cmax,brain)DB-1/(Cmax,brain)NBP DTIDB-1=(AUCbrain/AUCplasma)DB-1/(AUCbrain/AUCplasma)NBP Re(brain, DB-2)=(AUCbrain)DB-2/(AUCbrain)NBP CeDB-2=(Cmax,brain)DB-2/(Cmax,brain)NBP DTIDB-2=(AUCbrain/AUCplasma)DB-2/(AUCbrain/AUCplasma)NBP
The calculation results of the parameters can be seen in Table 2. Regarding DB-1, the brain relative uptake ratio Re is 3.64, the peak concentration ratio Ce is 2.93, and the drug targeting index DTI is 12.45. Regarding DB-2, the brain relative uptake ratio Re is 4.27, the peak concentration ratio Ce is 3.19, and the drug targeting index DTI is 18.08.

Setting [6] is: 5 min after intravenous administration.
The mark [7] stands for this setting: 1 h after intravenous administration.
Where [8] appears, read: pH 1.0 HCl, pH 4.5 acetate, pH 6.8 phosphate buffer, pure water.

In brackets after ≈: the same amount, converted by molar mass. Where two headings read alike, the source gives them in different places.

In general, solubility refers to the concentration that dissolves in the medium under given conditions.

Turning to `CCCCC1OC(=O)c2ccccc21` (racemic) [Butyphthalide (NBP), dl-3-n-butylphthalide, reference compound], in data set [1], the “apparent solubility in pure water” value was 0.0734 ± 0.0123 mg/mL, the “influence of pH on solubility” value is “not obvious” and the “solubility class in words” value is “insoluble medicine”.

Consider `CCCCC(OC(C)=O)c1ccccc1C(=O)OCCN(C)C` (stereo not shown) [DB-1], for which, in data set [2], the “permeation of the blood-brain barrier” value is “can also permeate the blood-brain barrier and enter the brain”. For the same compound, in data set [2], the “contents in the brain compared with the sodium salt of 2-(α-hydroxypentyl)benzoic acid (NBP)” value was “significant greater”. In data set [3] (setting [6]), this compound came in with a concentration at 5 min of 8.68 ± 1.48 µM. In data set [3] (setting [7]), this compound had a concentration at 1 h of 2.98 ± 0.534 µM. In addition, the “moisture absorption/weight gaining percentage” value turned out to be 0.42% in data set [4] (6 h); 0.65% in data set [4] (12 h); 0.88% in data set [4] (24 h); 0.93% in data set [4] (48 h); 0.97% in data set [4] (96 h); 1.03% in data set [4] (120 h). In data set [4] (120 h, listed as DB-1 hydrochloride), the “moisture absorption/weight gaining percentage” value is 1.03±0.07%. For the same compound, the “brain relative uptake ratio Re (AUCbrain of compound / AUCbrain of NBP)” value in data set [5] stood at 3.64. Moreover, the “drug targeting index DTI ((AUCbrain/AUCplasma) of compound / (AUCbrain/AUCplasma) of NBP)” value in data set [5] is given as 12.45. Further, in data set [5], the “peak concentration ratio Ce (Cmax,brain of compound / Cmax,brain of NBP)” value worked out at 2.93. The “influence of pH on solubility” value in data set [1] (setting [8]) is “highest in the pH 1.0 HCl solution”. Moreover, the “solubility class in words” value in data set [1] (pure water) is listed as “soluble medicines”. The solubility in data set [1] (pure water) was 20 ± 2.98 mg/mL (≈ 62.3 mM).

`CCCCC(OC(C)=O)c1ccccc1C(=O)OCCN1CCCCC1` (stereo not shown) [DB-2]: in data set [2], the “accumulated concentration in the brain compared with DB-1 hydrochloride” value was “greater”. Further, the “permeation of the blood-brain barrier” value in data set [2] was “can also permeate the blood-brain barrier and enter the brain”. Besides, the “contents in the brain compared with the sodium salt of 2-(α-hydroxypentyl)benzoic acid (NBP)” value in data set [2] is given as “significant greater”. In data set [3] (setting [6]), this compound came in with a concentration at 5 min of 6.29 ± 1.2 µM. The concentration at 1 h in data set [3] (setting [7]) stood at 1.45 ± 0.657 µM. Moreover, the “moisture absorption/weight gaining percentage” value in data set [4] (6 h) is 0.38%; in data set [4] (12 h) it was 0.54%; in data set [4] (24 h), 0.65%; in data set [4] (48 h), 0.71%; in data set [4] (96 h) it was 0.72%; in data set [4] (120 h), 0.76%. For the same compound, the “moisture absorption/weight gaining percentage” value in data set [4] (120 h, listed as DB-2 hydrochloride) is recorded as 0.76±0.06%. For the same compound, the “brain relative uptake ratio Re (AUCbrain of compound / AUCbrain of NBP)” value in data set [5] was found to be 4.27. For the same compound, in data set [5], the “drug targeting index DTI ((AUCbrain/AUCplasma) of compound / (AUCbrain/AUCplasma) of NBP)” value stood at 18.08. In addition, the “peak concentration ratio Ce (Cmax,brain of compound / Cmax,brain of NBP)” value in data set [5] was found to be 3.19. Moreover, the “influence of pH on solubility” value in data set [1] (setting [8]) was “highest in the pH 1.0 HCl solution”. For the same compound, the “solubility class in words” value in data set [1] (pure water) is listed as “soluble medicines”. Moreover, the solubility in data set [1] (pure water) is 11.7 ± 1.89 mg/mL (≈ 32.2 mM).

Turning to `CCCCC(O)c1ccccc1C(=O)[O-].[Na+]` (stereo not drawn) [sodium salt of 2-(α-hydroxypentyl)benzoic acid, reference compound], the “permeation of the blood-brain barrier” value in data set [2] was “can permeate the blood-brain barrier and enter the brain”. For the same compound, the “contents in the heart, the lung and the brain” value in data set [2] (4 h after administration) is given as “too low to be detected”. Besides, the blood concentration in data set [3] (setting [6]) came to 12.243 ± 1.847 µM; in data set [3] (setting [7]), 0.547 ± 0.289 µM. Further, the “moisture absorption/weight gaining percentage” value in data set [4] (120 h) came out at 2.49±0.25%.

Source of the values: patent publication US11149005B2, “Organic amine ester derivative drug of 2-(α-hydroxypentyl)benzoic acid” (YAOPHARMA CO., LTD., priority 2018, dated 2021).
